Data reported in US20220118170A1, “SYSTEMS, APPARATUS, AND METHODS FOR ADMINISTERING A SUBSTANCE” (Massachusetts Institute of Technology, priority 2015, published 2022).

Assays:
[1] = Effect of sonication on molecular structure (1H NMR); type: physicochemical; conditions: 20 kHz ultrasound at highest intensity, 4 mg/mL in deuterated DMSO
Method: Three biological replicates were performed. Unsonicated samples were used as the control. A Varian 500 (1H, 500 MHz) spectrometer was used to record 1H NMR spectra, then processed using Mnova NMR software (available from Mestralab Research, A Coruña, Spain). The 1H NMR spectra were referenced with residual non-deuterated solvent shifts (DMSO-d5=2.5 ppm). All shifts are reported in ppm. Note the disappearance of the volatile internal tetramethylsilane (TMS) standard after ultrasound treatment, which was carried out in an uncapped vial.
Deuterium exchange occurs as labile protons on the analyte exchange with the deuterated solvent in which it is dissolved. Replacement of protons by deuterium results in loss of signal, shown either as a reduction in the integration fractions or disappearance of the peak altogether. Other indications of deuterium exchange include a slight broadening of peak shape, a shift in peak location, and slight change in J coupling values.

[2] = parameters: species or system Yorkshire pigs; conditions: both, Yorkshire, pig, in vivo
Method: Before every experiment, the animal was fasted overnight.
In step 1402, the subject's rectum is cleared, for example, with a tap water enema. In the study, a clean rectum was confirmed by colonoscopy prior to treatment.
In step 1404, a medicated enema is instilled.
In step 1406, ultrasound is applied. In the study, Control and Treatment tests were performed on separate days. For Treatment tests, the ultrasound treatment was applied using a 20 kHz horn for 2 minutes at a 50% duty cycle at an intensity of 7.5 W/cm^2. For Control tests, the ultrasound probe was inserted into the colon, but not turned on (n=16).
In step 1408, the tissue is biopsied for further assessment. Colonic areas treated with ultrasound were biopsied using endoscopic biopsy forceps (available from, e.g., US Endoscopy, Mentor, Ohio) for drug delivery evaluation as well as histological analysis (n=13).
Each point represents one biological replicate (n=16 for Control, n=13 for Treatment).
Tissue was ground and mixed with phosphate buffered saline and precipitated with 10% trichloroacetic acid. The resulting supernatant was extracted with ethyl acetate. This extract was dried with anhydrous sodium sulfate, transferred to a glass tube, and evaporated to dryness under nitrogen. […] Finally, the sample was allowed to cool to room temperature and analyzed by GC/MS. […]

[3] = test system: dextran sodium sulfate (DSS)-induced acute colitis; assay: Dextran sodium sulfate-induced murine colitis model, mesalamine enema with radial UMGID; type: in vivo, C57BL/6 mice
Source text: Therefore, improvement in disease indices in this model as a result of ultrasound treatment would underscore the impact of UMGID. Given the colonic anatomy and the often circumferential nature of colitis involvement, it was hypothesized that radial UMGID would be most beneficial so as to direct the treatment over the largest area of inflamed tissue. […] The two bumps shown have a diameter of 3 mm and enhance radial ultrasound emission. […] Fifteen-week old, female C57BL/6 mice were purchased from Charles River Laboratories (Wilmington, Mass.) for the induction and treatment of dextran sodium sulfate (DSS)-induced colitis. Five animals were utilized per group. […] Each cage (group) was used as it was received and randomly assigned to experimental groups by the researchers performing the work. On day 1, blood was drawn from all mice and an initial weight of each animal was taken. Colitis was induced with 40-50 kDa dextran sulfate sodium salt (DSS) (available from, e.g., Affymetrix Inc., Santa Clara, Calif.). Starting on day 1, a 3% w/w DSS solution was administered in drinking water ad libitum. On days 3 and 5, the drinking solution was replaced with fresh DSS solution. […] The animals were monitored daily for weight, fecal consistency, and for the presence of fecal occult blood using Hemoccult cards (Beckman Coulter, Pasadena, Calif.). Fecal consistency and the presence of blood was scored based on previously published protocols. Specifically, stool consistency was scored as follows: (1) normal pellet-like feces, (2) pellet of stool easily crushed, (3) soft, watery stool with granules present, or (4) diarrhea. […] Animals with negative hemoccult results were scored (1). […] On day 14, a final weight was taken and fecal score assessed. […] Scores were determined according to previously published protocols with slight modification as follows in TABLE 3: Each tissue cross-section present on the microscope slide (n=2-6) was scored individually between 0-4 with a corresponding percentage involvement (rounded to the nearest quartile). […]

porcine small intestine = assay: Permeability in Side-Bi-Side diffusion cells; type: in vitro ADME
Method: Side-Bi-Side™ diffusion cells (available from PermeGear, Hellertown, Pa.) with inner diameters of 9 mm were used to determine permeability. Tissue was placed between the two chambers and clamped together with the luminal side facing the donor chamber. Stir bars were added to both the donor and receiver chambers and agitated using the Bell-ennium™ 9-position magnetic stirrer.
The donor solution consisted of 2 μCi/mL 3H-glucose and 2 μCi/mL 14C-labeled inulin. Each donor chamber was filled with 3 mL of this solution and the receiver solution was filled with 3 mL fresh PBS. At 10-minute intervals over the course of one hour,100 μL samples were taken from the receiver chamber and replaced with an equal volume of fresh PBS. Then, 15 mL of Hionic Fluor was added to these samples and analyzed for tritiated decomposition and 14C decomposition. Seven repeats were performed for the Control samples, and 17 for the Treated samples. […]
The only unknown in Equation 3 is the pore size in λ. Therefore, P may be determined experimentally for each permeant to estimate the membrane pore size. […]
where A is the area of the membrane exposed to the permeant, Ci is the concentration of the permeant in the donor chamber, and dQi/dt is the slope of the plot of the permeant quantity in the receiver chamber versus time after the lag-phase. […]

colon tissue = assay: Ex vivo delivery of radiolabeled permeants in Franz diffusion cells, colon; conditions: colonic tissue, ultrasound treatment, on average
Method: Solutions of the four compounds at a concentration of 1 mg/mL were prepared with a radiolabel content ranging from about 0.001% to about 2.5% depending on the stock solution's radiolabel content.
GI tissue (e.g., tongue, esophagus, stomach, intestine, and colon tissue) from Yorkshire pigs was procured within 20 minutes of animal euthanization and stored at about 4° C. Drug delivery testing took place within 6 hours of euthanization. Upon delivery, the fresh porcine tissue was washed with PBS and excess fat was carefully dissected away. With the exception of tongue tissue, the full thickness of the tissue was used for testing. The tissue was sectioned into approximately 2 cm-by-2 cm pieces and kept hydrated with PBS. The variability in thickness of tongue tissue prevented mounting of the entire thickness in the diffusion chambers. […]
Low-frequency (e.g., less than 100 kHz) ultrasound was utilized and administered directly to tissue and compared to controls consisting of untreated tissue. Delivery efficacy was assessed by quantifying the delivery of radiolabeled permeants into and through tissue utilizing Franz diffusion cells. […] Unless otherwise noted, delivered quantities represent the total amount of permeant delivered over this area. […]

blood-glucose = conditions: swine, enema containing 100U insulin with 1-minute 20 kHz ultrasound
Method: Both female and male Yorkshire pigs between 45-80 kg in weight were used for one study based on the availability of sex from the vendor. […] Before every experiment, the animal was fasted overnight. Sedation was induced with intramuscular injection of Telazol® tiletamine, 5 mg/kg (available from Zoetis, Inc., Florham, N.J.), xylazine 2 mg/kg, and atropine 0.04 mg/kg. The animal was then intubated and sedation maintained with isoflurane (1-3% inhaled).
In addition to the preparation noted above, a central venous catheter was placed in the femoral vein using the Seldinger technique to allow for frequent blood sampling. […] A real-time readout was achieved using a TRUEtrack® blood glucose meter (available from Nipro Diagnostics Inc., Fort Lauderdale, Fla.). The remaining blood sample was saved in a blood collection tube with sodium fluoride and ethylenediaminetetraacetic acid (EDTA) to minimize further glucose metabolism. All data shown represents the blood-glucose values quantified from the blood collection tubes, which was evaluated in a blinded fashion.
The blood-glucose was monitored for at least 40 minutes, depending on the experiment's effect on blood-glucose. When necessary, hypoglycemia was corrected with intravenous boluses of 50% dextrose (only needed when ultrasound treatment took place). […]

Nc1ccc(O)c(C(=O)O)c1 [mesalamine, 5-aminosalicylic acid]
Molecular structure / chemical stability after sonication (1H NMR) [1]: chemical stability
Drug content in tissue biopsies (limit of detection) [2]: < 50 ng/g tissue
Increase in delivery to tissue biopsies using ultrasound compared to tissue not treated [2]: 22.4 fold
Total fecal score on day 14 ([3]; mesalamine enema alone QD): significantly elevated
Total fecal score on day 14 ([3]; mesalamine enema with ultrasound treatment QD): below 4
Total fecal score on day 14 ([3]; mesalamine enema with ultrasound treatment QOD): below 4

inulin
Permeability (porcine small intestine; tissue not treated with ultrasound): 0.227 ± 0.113 ×10⁻⁶ cm/s
Average permeability (porcine small intestine; ultrasound treated samples, 20 kHz for 2 minutes at 50% duty cycle): 0.49 ± 0.227 ×10⁻⁶ cm/s
Amount in the tissue compared to that in the receiver chamber (colon tissue): 90 fold

insulin aspart
Blood-glucose response (blood-glucose): robust hypoglycemic response
